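The compound was tested at five concentrations on cells cultured in 96-well plates, with a 48-hour exposure period. Abbreviation: GI50, concentration required for 50% inhibition of growth.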 Active and inactive are the calls of the source. No stated cut-off is given here; in the data, active = GI50 up to about 1.1 µM and inactive = higher.
Legend:
Assay in all cases: DTP human tumour cell line panel, 48 h
[1] = tested on: SK-MEL-2
[2] = tested on: DMS-273
[3] = tested on: SN12C
[4] = tested on: MOLT-4
[5] = tested on: EKVX
[6] = tested on: KM12
[7] = tested on: TK-10
[8] = tested on: RXF 393
[9] = tested on: SF-295
[10] = tested on: NCI-H460
[11] = tested on: NCI-H23
[12] = tested on: HCC 2998
[13] = tested on: OVCAR-8
[14] = tested on: RPMI-8226
[15] = tested on: SR
[16] = tested on: A498
[17] = tested on: UACC-62
[18] = tested on: IGROV-1

Measured: GI50

CC(C)(C)c1cc(C(OCCl)(C(F)(F)F)C(F)(F)F)c2c(c1)C(C(F)(F)F)(C(F)(F)F)OC21c2ccccc2C(=O)c2ccccc21
inactive: [1] > 100 µM | [2] > 100 µM | [3] > 100 µM | [4] > 100 µM | [5] > 100 µM | [6] > 100 µM | [7] > 100 µM | [8] > 100 µM | [9] > 100 µM | [10] > 100 µM | [11] > 100 µM | [12] > 100 µM | [13] > 100 µM | [14] > 100 µM | [15] > 100 µM

COc1ccccc1NC(=O)C1=C(C)NC(C)=C(C(=O)Nc2ccccc2OC)C1c1cccc2ccccc12
inactive: [16] 33.9 µM | [17] > 100 µM | [1] > 100 µM | [2] 80.9 µM | [3] > 100 µM | [4] 10.6 µM | [5] > 100 µM | [6] 37.8 µM | [7] > 100 µM | [8] 21.2 µM | [9] 90.6 µM | [10] 20.1 µM | [11] 21.7 µM | [12] 83.8 µM | [13] > 100 µM | [18] > 100 µM | [14] 9.29 µM

CC12Oc3ccc4ccccc4c3C1c1c(ccc3ccccc13)O2 (centres undefined)
inactive: [17] > 100 µM | [1] > 100 µM | [2] > 100 µM | [3] > 100 µM | [4] > 100 µM | [5] > 100 µM | [6] > 100 µM | [7] > 100 µM | [8] > 100 µM | [9] 58.6 µM | [10] > 100 µM | [11] > 100 µM | [13] > 100 µM | [18] > 100 µM | [15] > 100 µM

COC(=O)CCCN(C)c1nc(N)n[nH]1
inactive: [17] > 100 µM | [2] > 100 µM | [3] > 100 µM | [4] > 100 µM | [5] > 100 µM | [6] > 100 µM | [7] > 100 µM | [8] > 100 µM | [9] > 100 µM | [10] > 100 µM | [11] > 100 µM | [12] > 100 µM | [13] > 100 µM | [18] > 100 µM | [14] > 100 µM | [15] > 100 µM

CCO/C(CCn1[nH]c(=O)c(Cl)c(Cl)c1=O)=N\NC(=O)C(=O)NN
inactive: [16] 82.8 µM | [17] > 100 µM | [1] > 100 µM | [2] > 100 µM | [3] > 100 µM | [4] > 100 µM | [5] > 100 µM | [6] > 100 µM | [7] > 100 µM | [8] > 100 µM | [9] > 100 µM | [10] > 100 µM | [11] > 100 µM | [12] > 100 µM | [13] > 100 µM | [18] > 100 µM | [14] > 100 µM

O=C1c2c(n(Cc3ccccc3)c(=O)n2Cc2ccccc2)C(=O)N1Cc1ccccc1
inactive: [16] 70 µM | [17] 41.4 µM | [1] 46.3 µM | [2] 31.4 µM | [3] 65.5 µM | [4] 54.6 µM | [5] 66.8 µM | [6] 55.5 µM | [7] > 100 µM | [8] 37.9 µM | [9] 72.3 µM | [10] 72.4 µM | [11] 38.6 µM | [12] 61.4 µM | [13] > 100 µM | [18] 93.5 µM | [14] 22.8 µM

Cc1ccc(C2=NN(C)COC2C(F)(F)F)cc1 (centres undefined)
inactive: [17] 18.6 µM | [1] > 100 µM | [2] > 100 µM | [3] > 100 µM | [4] > 100 µM | [5] > 100 µM | [6] > 100 µM | [8] > 100 µM | [9] > 100 µM | [10] > 100 µM | [11] > 100 µM | [12] > 100 µM | [13] > 100 µM | [18] > 100 µM | [14] > 100 µM | [15] > 100 µM

O=C(/C=C/c1ccccc1Cl)c1ccc(Cl)cc1Cl
inactive: [16] 18.8 µM | [17] 14.5 µM | [2] 15.7 µM | [3] 17.9 µM | [4] 3.91 µM | [5] 18.9 µM | [6] 11.4 µM | [7] 17.7 µM | [9] 19.3 µM | [10] 17.3 µM | [11] 19.2 µM | [12] 19.1 µM | [13] 15.7 µM | [18] 14.5 µM | [14] 9.55 µM

C#CCNC(=O)ON1C(=O)CCC1=O
inactive: [16] > 100 µM | [17] > 100 µM | [1] > 100 µM | [2] > 100 µM | [3] > 100 µM | [4] > 100 µM | [5] > 100 µM | [6] > 100 µM | [7] > 100 µM | [8] > 100 µM | [9] > 100 µM | [10] > 100 µM | [11] > 100 µM | [13] > 100 µM | [18] > 100 µM | [14] > 100 µM

[N-]=[N+]=N[C@H]1C[C@@H](CO)O[C@H]1n1cnc2c(N)ncnc21
inactive: [1] > 100 µM | [2] > 100 µM | [3] > 100 µM | [5] 57.4 µM | [6] > 100 µM | [7] > 100 µM | [9] > 100 µM | [10] > 100 µM | [11] > 100 µM | [12] > 100 µM | [13] > 100 µM

Cc1cccc(NC(=O)Cc2nc3ccccc3s2)c1C
inactive: [16] 83.8 µM | [17] > 100 µM | [1] > 100 µM | [2] > 100 µM | [3] > 100 µM | [4] > 100 µM | [5] > 100 µM | [6] > 100 µM | [7] > 100 µM | [8] > 100 µM | [9] > 100 µM | [10] > 100 µM | [11] > 100 µM | [12] > 100 µM | [13] > 100 µM | [18] > 100 µM | [14] > 100 µM

c1ccc(CNc2ccc3[nH]c4cnccc4c3c2)cc1
inactive: [16] 15 µM | [17] 17.6 µM | [1] 17.7 µM | [2] 19.8 µM | [3] 16.9 µM | [4] 14 µM | [5] 19 µM | [6] 17.3 µM | [7] 20 µM | [8] 13.6 µM | [9] 18.5 µM | [10] 17.9 µM | [11] 15.1 µM | [12] 18.1 µM | [13] 17.5 µM | [18] 16.8 µM | [14] 16.4 µM
